Assay results taken from PubChem BioAssay (NCI).
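GI50 = concentration required for 50% inhibition of growth. Definition used: TGI = concentration required for complete inhibition of growth.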

How the values were obtained:
Test in all cases: NCI tumour cell line growth inhibition, 384-well format
[1] = system: UACC-257 melanoma
[2] = system: HS 578T breast
[3] = system: HOP-62 NSCLC
[4] = system: SK-MEL-28 melanoma
[5] = system: SF-268 CNS
[6] = system: TK-10 renal
[7] = system: HCC-2998 colon
[8] = system: IGROV1 ovarian
[9] = system: SNB-19 CNS
[10] = system: MDA-MB-435 melanoma
[11] = system: EKVX NSCLC
[12] = system: LOX IMVI melanoma
[13] = system: HOP-92 NSCLC
[14] = system: COLO 205 colon
[15] = system: NCI/ADR-RES ovarian
[16] = system: NCI-H226 lung
[17] = system: UO-31 renal
[18] = system: KM12 colon
[19] = system: MOLT-4 leukemia
[20] = system: CAKI-1 renal
[21] = system: 786-0 renal
[22] = system: SK-MEL-5 melanoma
[23] = system: T-47D breast
[24] = system: BT-549 breast
[25] = system: SF-539 CNS
[26] = system: RXF 393 renal
[27] = system: OVCAR-8 ovarian
[28] = system: A549 NSCLC
[29] = system: MDA-MB-231 breast
[30] = system: SK-OV-3 ovarian
[31] = system: OVCAR-3 ovarian
[32] = system: HCT-116 colon
[33] = system: OVCAR-5 ovarian
[34] = system: M14 melanoma
[35] = system: RPMI-8226 leukemia
[36] = system: NCI-H522 lung
[37] = system: U251 glioblastoma
[38] = system: SF-295 CNS
[39] = system: MCF7 breast
[40] = system: PC-3 prostate
[41] = system: MALME-3M melanoma
[42] = system: A498 renal
[43] = system: SN12C renal
[44] = system: SR leukemia
[45] = system: NCI-H322M lung
[46] = system: DU-145 prostate
[47] = system: NCI-H23 lung
[48] = system: SNB-75 CNS
[49] = system: HT29 colon
[50] = system: SW-620 colon
[51] = system: UACC-62 melanoma
[52] = system: HL-60(TB) leukemia
[53] = system: OVCAR-4 ovarian
[54] = system: MDA-MB-468 breast
[55] = system: NCI-H460 NSCLC
[56] = system: HCT-15 colon
[57] = system: ACHN renal

## Cc1ccc(NC(=O)c2ccc(CN3CCN(C)CC3)cc2)cc1Nc1nccc(-c2cccnc2)n1
[1]
  GI50: 2.49 µM
  TGI: 6.18 µM
[2]
  GI50: 12.9 µM
  TGI: 25.6 µM
[3]
  GI50: 14.2 µM
  TGI: 27.4 µM
[4]
  GI50: 14.4 µM
  TGI: 27.7 µM
[5]
  GI50: 18.7 µM
  TGI: 36.2 µM
[6]
  GI50: 20.3 µM
  TGI: 43.1 µM
[7]
  GI50: 5.93 µM
  TGI: 17.5 µM
[8]
  GI50: 12.5 µM
  TGI: 25.2 µM
[9]
  GI50: 22.1 µM
  TGI: 49.3 µM
[10]
  GI50: 16.7 µM
  TGI: 31.4 µM
[11]
  GI50: 15.5 µM
  TGI: 29.8 µM
[12]
  GI50: 4.25 µM
  TGI: 14.9 µM
[13]
  GI50: 13.7 µM
  TGI: 28.1 µM
[14]
  GI50: 16.3 µM
  TGI: 29.9 µM
[15]
  GI50: 17.2 µM
  TGI: 32.1 µM
[16]
  GI50: 6.87 µM
  TGI: 19.1 µM
[17]
  GI50: 15.8 µM
  TGI: 30.6 µM
[18]
  GI50: 14.3 µM
  TGI: 27.6 µM
[19]
  GI50: 4.23 µM
  TGI: 15.4 µM
[20]
  GI50: 16.7 µM
  TGI: 30.5 µM
[21]
  GI50: 2.87 µM
  TGI: 7.97 µM
[22]
  GI50: 10.4 µM
  TGI: 22.2 µM
[23]
  GI50: 6.92 µM
  TGI: 20 µM
[24]
  GI50: 12.1 µM
  TGI: 24.6 µM
[25]
  GI50: 9.13 µM
  TGI: 21.4 µM
[26]
  GI50: 3.61 µM
  TGI: 16.2 µM
[27]
  GI50: 14.8 µM
  TGI: 28.4 µM
[28]
  GI50: 16.5 µM
  TGI: 35.1 µM
[29]
  GI50: 12.6 µM
  TGI: 26.7 µM
[30]
  GI50: 19.7 µM
  TGI: 37.1 µM
[31]
  GI50: 17.1 µM
  TGI: 31.8 µM
[32]
  GI50: 6.25 µM
  TGI: 18.8 µM
[33]
  GI50: 13.4 µM
  TGI: 36.8 µM
[34]
  GI50: 5.66 µM
  TGI: 16.7 µM
[35]
  GI50: 11.2 µM
  TGI: 23.3 µM
[36]
  GI50: 12 µM
  TGI: 24.7 µM
[37]
  GI50: 14.1 µM
  TGI: 28 µM
[38]
  GI50: 14.2 µM
  TGI: 27.8 µM
[39]
  GI50: 10.6 µM
  TGI: 22.7 µM
[40]
  GI50: 16 µM
  TGI: 31.1 µM
[41]
  GI50: 2.58 µM
  TGI: 5.42 µM
[42]
  GI50: 6.8 µM
  TGI: 19 µM
[43]
  GI50: 24.7 µM
  TGI: 64.4 µM
[44]
  GI50: 8.83 µM
  TGI: 19.6 µM
[45]
  GI50: 8.53 µM
  TGI: 21.2 µM
[46]
  GI50: 17.1 µM
  TGI: 31.1 µM
[47]
  GI50: 11.5 µM
  TGI: 24.3 µM
[48]
  GI50: 21.7 µM
  TGI: 36.2 µM
[49]
  GI50: 2.66 µM
  TGI: 6.67 µM
[50]
  GI50: 20.6 µM
  TGI: 41.2 µM
[51]
  GI50: 13.6 µM
  TGI: 26.7 µM
[52]
  GI50: 5.97 µM
  TGI: 16 µM
[53]
  GI50: 16.2 µM
  TGI: 30.7 µM
[54]
  GI50: 5.1 µM
  TGI: 17.9 µM
[55]
  GI50: 16.6 µM
  TGI: 30.9 µM
[56]
  GI50: 2.48 µM
  TGI: 5.73 µM
[57]
  GI50: 15.4 µM
  TGI: 29 µM
